The results in this text go back to patent US20250026743A1, “HETEROARYL-LINKED ANALOGS AS MGLU5 NEGATIVE ALLOSTERIC MODULATORS AND METHODS OF MAKING AND USING THE SAME” (Vanderbilt University, priority 2021, published 2025).

This assay addresses T1, hmGlu5 (Homo sapiens, UniProt P41594).
T1 construct: expressed in transfected cells; host or cells: HEK 293A
Briefly: mGlu5 Ca2+ flux assay in HEK 293A cells (negative allosteric modulation of glutamate EC80 response). The format is cell-based. To be noted: for remaining activity at 30 µM: HEK293-A, read-out: hmGlu5 NAM Emin (%); for IC50: HEK 293A cells, Ca2+ flux, glutamate EC80, >10,000 = decrease without plateau, read-out: hmGlu5 NAM IC50. In a few lines: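 HEK 293A cells stably expressing rat or human mGlu5, Fluo-4 AM loaded; compound added 2.3 min before glutamate EC20, then EC80; Ca2+ fluorescence peak amplitudes (F/F0) normalised to glutamate max. IC50 from 4-parameter logistic fit, 10-point 1:3 curves, top 30 μM; partial NAMs plateau above 10% Glu Max.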
A general note: Calcium assays in cells follow changes in intracellular calcium, usually with a dye or a luminescent sensor.

SMILES strings stand for the structures. Read-outs that look alike come from different tables or passages of the source.

T1 sequence (P41594 21-1212): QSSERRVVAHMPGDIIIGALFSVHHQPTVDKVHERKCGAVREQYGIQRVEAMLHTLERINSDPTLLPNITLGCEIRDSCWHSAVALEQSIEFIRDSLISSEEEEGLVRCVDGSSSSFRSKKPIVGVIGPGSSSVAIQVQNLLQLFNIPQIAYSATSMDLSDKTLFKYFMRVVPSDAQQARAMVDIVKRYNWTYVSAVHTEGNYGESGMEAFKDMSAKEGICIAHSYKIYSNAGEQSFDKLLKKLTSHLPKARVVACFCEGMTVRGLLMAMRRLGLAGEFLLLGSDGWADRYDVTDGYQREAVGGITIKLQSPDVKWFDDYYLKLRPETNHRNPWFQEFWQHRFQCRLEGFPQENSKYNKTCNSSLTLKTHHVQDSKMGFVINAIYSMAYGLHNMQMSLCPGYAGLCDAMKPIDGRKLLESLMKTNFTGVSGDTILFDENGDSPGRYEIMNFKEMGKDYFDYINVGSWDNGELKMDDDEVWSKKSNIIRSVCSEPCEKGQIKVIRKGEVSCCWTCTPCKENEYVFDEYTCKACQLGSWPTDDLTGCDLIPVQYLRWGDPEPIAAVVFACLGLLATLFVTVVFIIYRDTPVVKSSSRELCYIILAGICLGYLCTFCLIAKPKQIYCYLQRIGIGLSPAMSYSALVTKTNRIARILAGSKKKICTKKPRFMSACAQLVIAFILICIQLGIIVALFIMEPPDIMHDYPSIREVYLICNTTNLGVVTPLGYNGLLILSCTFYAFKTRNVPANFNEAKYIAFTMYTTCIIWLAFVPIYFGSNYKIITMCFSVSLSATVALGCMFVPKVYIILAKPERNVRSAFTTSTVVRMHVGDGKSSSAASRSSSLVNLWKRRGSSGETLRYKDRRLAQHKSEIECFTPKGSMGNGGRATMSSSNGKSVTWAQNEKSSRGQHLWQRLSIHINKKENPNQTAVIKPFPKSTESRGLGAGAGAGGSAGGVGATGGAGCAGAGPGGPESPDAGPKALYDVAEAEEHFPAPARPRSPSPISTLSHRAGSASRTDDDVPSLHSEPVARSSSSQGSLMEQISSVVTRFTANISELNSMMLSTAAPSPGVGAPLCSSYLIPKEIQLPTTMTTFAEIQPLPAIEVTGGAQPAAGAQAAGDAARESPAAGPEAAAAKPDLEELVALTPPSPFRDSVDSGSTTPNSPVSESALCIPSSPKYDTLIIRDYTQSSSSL

One may read the IC50 as the concentration needed to halve the response being measured. On to `Cc1csc(-c2nnc(-c3cc(-c4cncc(F)c4)c(F)c(C)n3)o2)n1` [Compound 83, 2-(5,5′-difluoro-6′-methyl-[3,4′-bipyridin]-2′-yl)-5-(4-methylthiazol-2-yl)-1,3,4-oxadiazole], for which the remaining activity at 30 µM amounted to 2% and the 50% inhibitory concentration (IC50) amounted to 600 nM.
For `Fc1ccc(-c2nnc(-c3cc(-c4cncc(F)c4)cc(C(F)F)n3)o2)nc1` [Compound 84, 2-(6′-(difluoromethyl)-5-fluoro-[3,4′-bipyridin]-2′-yl)-5-(5-fluoropyridin-2-yl)-1,3,4-oxadiazole], the IC50 turned out to be 359 nM. In addition, the remaining activity at 30 µM (% Glu max at 30 μM) stood at 1%.
For `[2H]C([2H])([2H])c1cc(-c2cncc(F)c2)cc(-c2nnc(-c3ccc(F)cn3)o2)n1` [Compound 85, 2-(5-fluoro-6′-(methyl-d3)-[3,4′-bipyridin]-2′-yl)-5-(5-fluoropyridin-2-yl)-1,3,4-oxadiazole] the same measures were 450 nM and 1%.
As for `Cc1cc(CC2CCOC2)cc(-c2noc(-c3ccc(F)cn3)n2)n1` (stereo not drawn) [Compound 86, 5-(5-fluoropyridin-2-yl)-3-(6-methyl-4-((tetrahydrofuran-3-yl)methyl)pyridin-2-yl)-1,2,4-oxadiazole], the IC50 was determined as 766 nM. In addition, the remaining activity at 30 µM (% Glu max at 30 μM) was 1%.
In the case of `Cc1cncc(-c2nc(-c3cc(-c4cnccc4C)c(F)c(C)n3)no2)c1` [Compound 87, 3-(5′-fluoro-4,6′-dimethyl-[3,4′-bipyridin]-2′-yl)-5-(5-methylpyridin-3-yl)-1,2,4-oxadiazole], the half-inhibitory concentration (IC50) stood at 4290 nM. The remaining activity at 30 µM (% Glu max at 30 μM) stood at 13%.
For `Cc1ccnc(-c2nc(-c3cc(-c4cnccc4C)c(F)c(C)n3)no2)c1` [Compound 88, 3-(5′-fluoro-4,6′-dimethyl-[3,4′-bipyridin]-2′-yl)-5-(4-methylpyridin-2-yl)-1,2,4-oxadiazole] the same measures were 245 nM and 3%.
For `Cc1ccncc1-c1cc(-c2noc(C(F)c3ccccc3)n2)nc(C)c1F` (stereo not drawn) [Compound 89, 5-(fluoro(phenyl)methyl)-3-(5′-fluoro-4,6′-dimethyl-[3,4′-bipyridin]-2′-yl)-1,2,4-oxadiazole] the same measures were 3600 nM and 3%.
For `Cc1cc(-c2cncc(F)c2)cc(-c2nc(-c3ccc(F)cn3)no2)n1` [Compound 90, 5-(5-fluoro-6′-methyl-[3,4′-bipyridin]-2′-yl)-3-(5-fluoropyridin-2-yl)-1,2,4-oxadiazole] the same measures were 123 nM and 2%.
As for `Cc1ccncc1-c1cc(-c2noc(-c3cc(Cl)ccn3)n2)nc(C)c1F` [Compound 91, 5-(4-chloropyridin-2-yl)-3-(5′-fluoro-4,6′-dimethyl-[3,4′-bipyridin]-2′-yl)-1,2,4-oxadiazole], the IC50 was 155 nM. Besides, the remaining activity at 30 µM (% Glu max at 30 μM) is 2%.
The like results for `Cc1ccncc1-c1cc(-c2noc(-c3cccnn3)n2)nc(C)c1F` [Compound 92, 3-(5′-fluoro-4,6′-dimethyl-[3,4′-bipyridin]-2′-yl)-5-(pyridazin-3-yl)-1,2,4-oxadiazole] were, in that order, greater than 10000 nM and 74%.
Regarding `Cc1ccncc1-c1cc(-c2noc(-c3ccncc3)n2)nc(C)c1F` [Compound 93, 3-(5′-fluoro-4,6′-dimethyl-[3,4′-bipyridin]-2′-yl)-5-(pyridin-4-yl)-1,2,4-oxadiazole], the IC50 worked out at 221 nM. Besides, for the setting “% Glu max at 30 μM”, the remaining activity at 30 µM amounted to 2%.
As to `Cc1ccncc1-c1cc(-c2noc(-c3cnccn3)n2)nc(C)c1F` [Compound 94, 3-(5′-fluoro-4,6′-dimethyl-[3,4′-bipyridin]-2′-yl)-5-(pyrazin-2-yl)-1,2,4-oxadiazole], the 50% inhibitory concentration (IC50) is greater than 10000 nM. Besides, under “% Glu max at 30 μM”, the remaining activity at 30 µM was 37%.
Take `Cc1ccncc1-c1cc(-c2noc(C(C)c3ccccc3)n2)nc(C)c1F` (stereo not drawn) [Compound 95, 3-(5′-fluoro-4,6′-dimethyl-[3,4′-bipyridin]-2′-yl)-5-(1-phenylethyl)-1,2,4-oxadiazole]: the half-maximal inhibitory concentration (IC50) was greater than 10000 nM. Moreover, the remaining activity at 30 µM (% Glu max at 30 μM) was found to be 27%.
For `Cc1nc(-c2n[nH]c(-c3ccc(F)cn3)n2)cc(-c2cncc(F)c2)c1F` [Compound 96, 3′,5-difluoro-6′-(5-(5-fluoropyridin-2-yl)-1H-1,2,4-triazol-3-yl)-2′-methyl-3,4′-bipyridine] the same measures were 64 nM and 2%.
With `Cc1ccncc1-c1cc(-c2n[nH]c(-c3ccc(F)cn3)n2)nc(C)c1F` [Compound 97, 3′-fluoro-6′-(5-(5-fluoropyridin-2-yl)-1H-1,2,4-triazol-3-yl)-2′,4-dimethyl-3,4′-bipyridine], the 50% inhibitory concentration (IC50) worked out at 183 nM. Besides, the remaining activity at 30 µM (% Glu max at 30 μM) is 2%.
The like results for `Cc1nc(-c2n[nH]c(-c3ccccc3F)n2)cc(-c2cncc(F)c2)c1F` [Compound 98, 3′,5-difluoro-6′-(5-(2-fluorophenyl)-1H-1,2,4-triazol-3-yl)-2′-methyl-3,4′-bipyridine] were, in that order, 82 nM and 1%.
The like results for `Cc1nc(-c2n[nH]c(-c3ccc(F)cc3)n2)cc(-c2cncc(F)c2)c1F` [Compound 99, 3′,5-difluoro-6′-(5-(4-fluorophenyl)-1H-1,2,4-triazol-3-yl)-2′-methyl-3,4′-bipyridine] were, in that order, 47 nM and 2%.
The like results for `COc1c(-c2cncc(F)c2)cc(-c2n[nH]c(-c3ccccc3F)n2)nc1C` [Compound 100, 5-fluoro-6′-(5-(2-fluorophenyl)-1H-1,2,4-triazol-3-yl)-3′-methoxy-2′-methyl-3,4′-bipyridine] were, in that order, 300 nM and 2%.
In the case of `COc1c(-c2cncc(F)c2)cc(-c2n[nH]c(-c3cccc(F)c3)n2)nc1C` [Compound 101, 5-fluoro-6′-(5-(3-fluorophenyl)-1H-1,2,4-triazol-3-yl)-3′-methoxy-2′-methyl-3,4′-bipyridine], the IC50 worked out at 114 nM. In addition, for the setting “% Glu max at 30 μM”, the remaining activity at 30 µM stood at 11%.
For `COc1c(-c2cncc(F)c2)cc(-c2n[nH]c(-c3ccc(F)cc3)n2)nc1C` [Compound 102, 5-fluoro-6′-(5-(4-fluorophenyl)-1H-1,2,4-triazol-3-yl)-3′-methoxy-2′-methyl-3,4′-bipyridine] the same measures were 663 nM and 2%.
In the case of `[2H]C([2H])([2H])Oc1c(-c2cncc(F)c2)cc(-c2nc(-c3ccc(F)cn3)no2)nc1C` [Compound 103, 5-(5-fluoro-5′-(methoxy-d3)-6′-methyl-[3,4′-bipyridin]-2′-yl)-3-(5-fluoropyridin-2-yl)-1,2,4-oxadiazole], the IC50 worked out at 624 nM. Moreover, the remaining activity at 30 µM (% Glu max at 30 μM) was 5%.
The like results for `Cc1csc(-c2noc(-c3cc(-c4cncc(F)c4)c(F)c(C)n3)n2)n1` [Compound 104, 5-(5,5′-difluoro-6′-methyl-[3,4′-bipyridin]-2′-yl)-3-(4-methylthiazol-2-yl)-1,2,4-oxadiazole] were, in that order, 122 nM and 1%.
`Cc1csc(-c2noc(-c3cc(-c4cnccc4C)c(F)c(C)n3)n2)n1` [Compound 105, 5-(5′-fluoro-4,6′-dimethyl-[3,4′-bipyridin]-2′-yl)-3-(4-methylthiazol-2-yl)-1,2,4-oxadiazole]: the IC50 is greater than 10000 nM. Moreover, the remaining activity at 30 µM (% Glu max at 30 μM) stood at 13%.
The like results for `Cc1cc(O[C@@H]2CCOC2)cc(-c2noc(-c3nc(C)cs3)n2)n1` [Compound 106, (R)-3-(6-methyl-4-((tetrahydrofuran-3-yl)oxy)pyridin-2-yl)-5-(4-methylthiazol-2-yl)-1,2,4-oxadiazole] were, in that order, 387 nM and 2%.
With `COc1cncc(-c2cc(-c3nnc(-c4ccc(F)cn4)o3)nc(C)c2F)c1` [Compound 107, 2-(5′-fluoro-5-methoxy-6′-methyl-[3,4′-bipyridin]-2′-yl)-5-(5-fluoropyridin-2-yl)-1,3,4-oxadiazole], the half-inhibitory concentration (IC50) was found to be 336 nM. Also, the remaining activity at 30 µM (% Glu max at 30 μM) amounted to 2%.
For `COc1cc(-c2cc(-c3nnc(-c4ccc(F)cn4)o3)nc(C)c2F)ccn1` [Compound 108, 2-(5-fluoro-2′-methoxy-6-methyl-[4,4′-bipyridin]-2-yl)-5-(5-fluoropyridin-2-yl)-1,3,4-oxadiazole] the same measures were 94 nM and 1%.
`COc1cc(C#N)cc(-c2cc(-c3nnc(-c4ccc(F)cn4)o3)nc(C)c2F)c1` [Compound 109, 3-(3-fluoro-6-(5-(5-fluoropyridin-2-yl)-1,3,4-oxadiazol-2-yl)-2-methylpyridin-4-yl)-5-methoxybenzonitrile]: the IC50 is 66 nM. Also, under “% Glu max at 30 μM”, the remaining activity at 30 µM turned out to be 2%.
With `Cc1nc(-c2nnc(-c3ccc(F)cn3)o2)cc(-c2cnsc2)c1F` [Compound 110, 2-(5-fluoro-4-(isothiazol-4-yl)-6-methylpyridin-2-yl)-5-(5-fluoropyridin-2-yl)-1,3,4-oxadiazole], the IC50 amounted to 185 nM. For the same compound, under “% Glu max at 30 μM”, the remaining activity at 30 µM came to 2%.
Regarding `Cc1ccc(-c2cc(-c3nnc(-c4ccc(F)cn4)o3)nc(C)c2F)c(C)n1` [Compound 111, 2-(5′-fluoro-2,6,6′-trimethyl-[3,4′-bipyridin]-2′-yl)-5-(5-fluoropyridin-2-yl)-1,3,4-oxadiazole], the IC50 amounted to 1530 nM. Besides, under “% Glu max at 30 μM”, the remaining activity at 30 µM is 2%.
For `Cc1cc(O[C@@H]2CCOC2)cc(-c2noc(-c3ccc(F)cn3)n2)n1` [Compound 112, (R)-5-(5-fluoropyridin-2-yl)-3-(6-methyl-4-((tetrahydrofuran-3-yl)oxy)pyridin-2-yl)-1,2,4-oxadiazole] the same measures were greater than 10000 nM and 21%.
